The term IC50 denotes the concentration at which inhibition is half-maximal.

For the experiment, the target named is T1, Recombinant human PAD4 (2-663) (Homo sapiens, UniProt Q9UM07).
T1 construct: Recombinant human PAD4 (2-663) was expressed in E. coli; made in house; host or cells: E. coli
T1 sequence (Q9UM07 2-663): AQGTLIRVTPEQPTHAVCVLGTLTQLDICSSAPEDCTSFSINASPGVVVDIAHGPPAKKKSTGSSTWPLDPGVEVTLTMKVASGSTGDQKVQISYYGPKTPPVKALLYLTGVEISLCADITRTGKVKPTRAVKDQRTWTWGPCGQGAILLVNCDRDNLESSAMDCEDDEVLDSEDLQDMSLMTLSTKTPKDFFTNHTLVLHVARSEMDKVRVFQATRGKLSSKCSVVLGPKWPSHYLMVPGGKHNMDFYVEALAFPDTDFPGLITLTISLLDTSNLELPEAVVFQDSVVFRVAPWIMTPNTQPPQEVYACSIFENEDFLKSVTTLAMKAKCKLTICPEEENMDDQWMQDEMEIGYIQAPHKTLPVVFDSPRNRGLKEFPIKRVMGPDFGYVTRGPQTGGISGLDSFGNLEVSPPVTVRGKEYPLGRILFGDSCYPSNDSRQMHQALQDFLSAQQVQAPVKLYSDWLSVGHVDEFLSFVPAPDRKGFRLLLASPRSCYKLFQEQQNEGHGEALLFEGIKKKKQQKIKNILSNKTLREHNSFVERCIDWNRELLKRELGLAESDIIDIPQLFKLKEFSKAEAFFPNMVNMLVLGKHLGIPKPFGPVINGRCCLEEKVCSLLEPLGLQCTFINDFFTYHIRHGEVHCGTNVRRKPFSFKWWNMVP
Nature of the experiment: PAD4 Inhibition Assay. In kind it is biochemical. Particulars: 60 mins pre-incubation at RT; substrate BAEE with CaCl2; fluorescent signal (λex 405/λem 460). The protocol: Protein: Recombinant human PAD4 (2-663) was expressed in E. coli as an N-terminal Strep-tag and C-terminal 6-his tag fusion protein. Protein was purified using Strep-tactin resin followed by size exclusion chromatography. Tags were not removed during purification. Activity of the protein was determined using ammonia quantification assay.
PAD4 enzyme (10 μL) was diluted to concentration of 75 nM in assay buffer A (100 mM HEPES, pH 8, 50 mM NaCl, 2 mM DTT, 0.6 mg/mL BSA and 0.5% DMSO) and added to wells containing 10 μL of various concentrations of test compound, or DMSO vehicle in buffer A with 1.5% final DMSO concentration in a Corning high volume 384 well black plate. Following 60 mins pre-incubation at RT with gentle shaking, the reaction was initiated by the addition of 10 μL of substrate buffer containing 3 mM N-α-benzoyl-L-arginine ethyl ester (BAEE) and 600 μM CaCl2) in assay buffer A. The reaction was stopped after 60 mins with the addition of 15 μL stop/detection buffer containing 7.5 mM phthalaldehyde, 50 mM EDTA and 7.5 mM DTT in assay buffer A. Quenched reactions were incubated at RT for 45 mins before measuring fluorescent signal (λex 405/λem 460) on an Envision plate reader (Perkin Elmer Life Sciences, Waltham, Mass., USA).
In the case of `N[C@@H]1CCN(C(=O)c2cc3ccc(Cl)cc3[nH]2)C1` [Example 46, (R)-(3-Aminopyrrolidin-1-yl)(6-chloro-1H-indol-2-yl)methanone], the IC50 fell in the range of 1 to 10 µM. With `N[C@H]1CNC[C@@H]1NC(=O)c1cc2cc(Cl)c(F)c(F)c2[nH]1` [Example 30, N-((3S,4S)-4-Aminopyrrolidin-3-yl)-5-chloro-6,7-difluoro-1H-indole-2-carboxamide], the IC50 is 10 to 100 µM. Next, `N[C@H]1CN(C(=O)c2cc3cc(Cl)c(F)c(F)c3[nH]2)C[C@@H]1N` [Example 29, (5-Chloro-6,7-difluoro-1H-indol-2-yl)((3S,4S)-3,4-diaminopyrrolidin-1-yl)methanone]: 1 to 10 µM; `O=C(N[C@@H]1CCNC1)c1cc2cc(Cl)c(F)c(F)c2[nH]1` [Example 25, (R)-5-Chloro-6,7-difluoro-N-(pyrrolidin-3-yl)-1H-indole-2-carboxamide]: 10 to 100 µM; `O=C(c1cc2cc(Cl)c(F)c(F)c2[nH]1)N1CC2(CCNC2)C1` [Example 61, (5-chloro-6,7-difluoro-1H-indol-2-yl)(2,6-diazaspiro[3.4]octan-2-yl)methanone]: 10 to 100 µM.

For `N[C@@H]1CCN(C(=O)c2cc3cc(F)c(Cl)c(F)c3[nH]2)C1` [Example 4, (R)-(3-Aminopyrrolidin-1-yl)(6-chloro-5,7-difluoro-1H-indol-2-yl)methanone], the IC50 lay within 1 to 10 µM. As for `N[C@@H]1CCN(C(=O)c2cc3cc(F)ccc3[nH]2)C1` [Example 49, (R)-(3-Aminopyrrolidin-1-yl)(5-fluoro-1H-indol-2-yl)methanone], the IC50 lay in the range of 10 to 100 µM. As to `C[C@H]1CNC[C@H]1NC(=O)c1cc2cc(Cl)c(F)c(F)c2[nH]1` [Example 14, 5-Chloro-6,7-difluoro-N-((3S,4S)-4-methylpyrrolidin-3-yl)-1H-indole-2-carboxamide], the IC50 is at most 1 µM. Take `N[C@@H]1CCN(C(=O)c2cc3cc(Cl)ccc3[nH]2)C1` [Example 8, (R)-(3-Aminopyrrolidin-1-yl)(5-chloro-1H-indol-2-yl)methanone]: the IC50 lay in the range of 1 to 10 µM.

As to `CO[C@@H]1CNC[C@H]1NC(=O)c1cc2cc(Cl)c(F)c(F)c2[nH]1` [Example 34, 5-Chloro-6,7-difluoro-N-((3R,4R)-4-methoxypyrrolidin-3-yl)-1H-indole-2-carboxamide], the IC50 fell in the range of 10 to 100 µM. In the case of `O=C(N[C@@H]1CNC[C@@H]1O)c1cc2cc(Cl)c(F)c(F)c2[nH]1` [Example 16, 5-Chloro-6,7-difluoro-N-((3R,4S)-4-hydroxypyrrolidin-3-yl)-1H-indole-2-carboxamide], the IC50 fell in the range of 1 to 10 µM. For `NCC(NC(=O)c1cc2cc(Cl)c(F)c(F)c2[nH]1)C1CC1` (centres unmarked) [Example 11, N-(2-Amino-1-cyclopropylethyl)-5-chloro-6,7-difluoro-1H-indole-2-carboxamide], the IC50 fell in the range of 10 to 100 µM. For `CC(C)C[C@@H](CN)NC(=O)c1cc2cc(Cl)c(F)c(F)c2[nH]1` [Example 19, (S)-N-(1-Amino-4-methylpentan-2-yl)-5-chloro-6,7-difluoro-1H-indole-2-carboxamide] the value was 10 to 100 µM; for `N[C@H]1CN(C(=O)c2cc3cc(I)c(F)c(F)c3[nH]2)C[C@@H]1O` [Example 66, ((3S,4S)-3-amino-4-hydroxypyrrolidin-1-yl)(6,7-difluoro-5-iodo-1H-indol-2-yl)methanone], 1 to 10 µM; for `N[C@@H]1CCN(C(=O)c2cc3cc(Cl)c(Cl)cc3[nH]2)C1` [Example 44, (R)-(3-Aminopyrrolidin-1-yl)(5,6-dichloro-1H-indol-2-yl)methanone], 1 to 10 µM.

For the compound `O=C(NC[C@H]1CCNC1)c1cc2cc(Cl)c(F)c(F)c2[nH]1` [Example 62, (S)-5-chloro-6,7-difluoro-N-(pyrrolidin-3-ylmethyl)-1H-indole-2-carboxamide], the IC50 lay within 10 to 100 µM. On to `N[C@H]1CN(C(=O)c2cc3cc(Cl)c(F)c(F)c3[nH]2)CC[C@H]1F` [Example 43, ((3S,4R)-3-Amino-4-fluoropiperidin-1-yl)(5-chloro-6,7-difluoro-1H-indol-2-yl)methanone], for which the IC50 was above 100 µM.

On to `CN(C(=O)c1cc2cc(Cl)c(F)c(F)c2[nH]1)C1CNC1` [Example 52, N-(azetidin-3-yl)-5-chloro-6,7-difluoro-N-methyl-1H-indole-2-carboxamide], for which the IC50 was in the range of 10 to 100 µM. Take `O=C(c1cc2cc(Cl)c(F)c(F)c2[nH]1)N1CC[C@H]2CNC[C@H]21` [Example 57, (5-chloro-6,7-difluoro-1H-indol-2-yl)((3aS,6aS)-hexahydropyrrolo[3,4-b]pyrrol-1(2H)-yl)methanone]: the IC50 was in the range of 1 to 10 µM.

As for `O=C(N[C@@H]1CCCNC1)c1cc2cc(Cl)c(F)c(F)c2[nH]1` [Example 40, (R)-5-Chloro-6,7-difluoro-N-(piperidin-3-yl)-1H-indole-2-carboxamide], the IC50 lay within 10 to 100 µM.

`C[C@@H]1NC[C@@H]1NC(=O)c1cc2cc(Cl)c(F)c(F)c2[nH]1` [Example 54, 5-chloro-6,7-difluoro-N-((2S,3S)-2-methylazetidin-3-yl)-1H-indole-2-carboxamide]: the IC50 lay in the range of 1 to 10 µM. Regarding `N[C@@H]1CCN(C(=O)c2cc3cc(F)c(F)c(F)c3[nH]2)C1` [Example 3, (R)-(3-Aminopyrrolidin-1-yl)(5,6,7-trifluoro-1H-indol-2-yl)methanone], the IC50 fell in the range of 1 to 10 µM.

As to `N[C@H]1CN(C(=O)c2cc3cc(Cl)c(F)c(F)c3[nH]2)C[C@H]1F` [Example 7, ((3S,4R)-3-Amino-4-fluoro-pyrrolidin-1-yl)-(5-chloro-6,7-difluoro-1H-indol-2-yl)-methanone], the IC50 was in the range of 10 to 100 µM. For the compound `N[C@@H]1CCN(C(=O)c2cc3cc(Cl)cc(Br)c3[nH]2)C1` [Example 47, (R)-(3-Aminopyrrolidin-1-yl)(7-bromo-5-chloro-1H-indol-2-yl)methanone], the IC50 was 10 to 100 µM. With `N[C@@H]1CCN(C(=O)c2cc3cc(Cl)c(F)c(F)c3[nH]2)C1` [Example 1, (R)-(3-Aminopyrrolidin-1-yl)(5-chloro-6,7-difluoro-1H-indol-2-yl)methanone], the 50% inhibitory concentration (IC50) was at most 1 µM. For `O=C(c1cc2cc(Cl)c(F)c(F)c2[nH]1)N1CC[C@@H]2CNC[C@@H]21` [Example 58, (5-chloro-6,7-difluoro-1H-indol-2-yl)((3aR,6aR)-hexahydropyrrolo[3,4-b]pyrrol-1(2H)-yl)methanone], the IC50 was 10 to 100 µM. Take `N[C@H]1CN(C(=O)c2cc3cc(Br)c(F)c(F)c3[nH]2)C[C@@H]1O` [Example 65, ((3S,4S)-3-amino-4-hydroxypyrrolidin-1-yl)(5-bromo-6,7-difluoro-1H-indol-2-yl)methanone]: the IC50 was 1 to 10 µM. With `O=C(c1cc2cc(Cl)c(F)c(F)c2[nH]1)N1C[C@H]2CNC[C@H]2C1` [Example 59, (5-chloro-6,7-difluoro-1H-indol-2-yl)((3aR,6aS)-hexahydropyrrolo[3,4-c]pyrrol-2(1H)-yl)methanone], the IC50 is 10 to 100 µM. Regarding `CC(C)(C)[C@@H](CN)NC(=O)c1cc2cc(Cl)c(F)c(F)c2[nH]1` [Example 28, (S)-N-(1-Amino-3,3-dimethylbutan-2-yl)-5-chloro-6,7-difluoro-1H-indole-2-carboxamide], the IC50 is 10 to 100 µM.

(Values after US12018033B2, “Inhibitors of protein arginine deiminases” (Forward Therapeutics, Inc., priority 2018, dated 2024).)
